Series [1] deals with Plasmodium Falciparum drug resistant reference strain W2. Briefly: Growth of malaria parasites in human erythrocyte cultures (% parasitaemia, Giemsa smears). The format is cell-based. The text has this:
The specific parasite investigated was the reference drug resistant strain W2 of the species Plasmodium Falciparum. Plasmodium Falciparum is the most commonly occurring as well as the most virulent malaria parasite currently known in man.
The system used in this investigation aims to mimic the live situation as closely as possible. For that reason, the parasites were infected into fresh primary erythrocytes isolated from O+ or A+ blood donors.
Furthermore, human serum prepared from the same donors was used as an adjuvant instead of foetal calf serum. Parasite growth was maintained by the addition of freshly prepared erythrocytes from the same donors.
The growth of the parasites was determined by visualization of the parasite DNA on thin smears of the infected cultures. Since mature erythrocytes contain no nucleus, and therefore no DNA, the only DNA present was of parasitic origin. Only intracellular parasites were included in determining the percentage parasitaemia, as extracellular parasites are no longer viable.
A. Culturing of Malaria Parasites: • 1. Preparation of fresh human erythrocytes • 2. Preparation of human serum from the same donor. • 3. Quality control of human serum. • 4. Infection of erythrocyte cultures with parasites. Initial infection load was 0.5% parasitaemia. • 5. Maintenance of parasite blood cultures • 6. The parasite percentage in the blood cultures was determined after 36 or 48 hours, depending on the level of infection of the freshly added erythrocytes.
A stock solution of 10 mM chloroquine solution in a 1:250 dilution of nanolipid formulation was made by vortexing and sonication. All concurrent dilutions were from this stock.
D Drug Delivery by MZL Nanolipid Formulations: • 1 Penetrance of nanolipid formulations in red blood cells was determined by microscopic visualization, as were the penetrance of chloroquine-carrying nanolipid formulations. • 2. […] Typically 48-well plates or 96-well plates were used. 200 ul or 100 ul total culture volumes were used respectively, of which 90% of the volume was infected erythrocyte culture. 10% volume was used for the treatment, be it chloroquine in Nanolipid formulation, chloroquine in water, or for the controls 1:250 pure Nanolipid formulation, pure culturing media or water only. • 4. All series were in duplicate.
Parasitic DNA was visualised by Giemsa staining of thin smears. Ethidium bromide or acridine orange may be used for fluorescent staining.
The % infection after applicable incubation periods was determined as follows: […]

Series [2] shares this test system. As to conditions: read-out: 50% Inhibition concentration value (IC50); free Chloroquine; known value of strain W2; cited from earlier work.
For another series, the system named is M. tuberculosis H37Rv. Briefly: BACTEC growth index with Ethambutol with and without MZL. The format is cell-based, Mycobacterium tuberculosis. As to conditions: for inhibition at 0.0325 µg/mL: 0.0325 μg/ml Ethambutol; for inhibition at 0.0625 µg/mL: 0.0625 μg/ml Ethambutol; for inhibition at 0.125 µg/mL: 0.125 μg/ml Ethambutol; for inhibition at 0.25 µg/mL: 0.25 μg/ml Ethambutol; for inhibition at 0.5 µg/mL: 0.5 μg/ml Ethambutol; for inhibition at 1 µg/mL: 1.0 μg/ml Ethambutol.

For series [3], the system named is melanoma cells (UCT MeI 1 cell line) incubated with fungi. As to conditions: 0.2%.
For series [4] the following is noted: human, in vivo.
The conditions of series [5]: 20° C. and 2 atm pressure; cited from earlier work.
In series [6] the test system is HIV subtype D viruses in CD4 helper T-cells (CEM-SS cell line). Briefly: HIV viral load (p24 core antigen ELISA) in infected CD4 helper T-cells. The format is cell-based, HIV-1. How it is done:
The following protocols were followed in this investigation: • a) Several cultures of CD4 helper T-cells (CEM-SS cell line; NIH AIDS Research and Reference Reagent Program) were infected with HIV subtype D viruses at applicable cell seeding densities and viral loads. Cells were maintained in tissue culture under standard culturing conditions. • b) The viral load in cultured cells were determined every day for 7 consecutive days after infection by measuring the p24 core antigen of HIV-1 in the supernatant culturing fluid by ELISA. This assay is based on a colour change after addition of substrate that is proportionate to the viral replication in each culture. The colour change is monitored by absorbance spectrophotometry at 450 nm. Negative control absorbance readings were used to calculate the absorbance/cut-off for each culture. • c) Determination of the optimal concentration of nanolipid-vesicle containing base formulation was done by cytotoxicity assays and cell growth curves. The cytotoxicity assay used was the standard MTT assay and spectrophotometry was once again used to determine cell viability for the CEM-SS cell line. Growth curves were used to determine the optimal concentration of base formulation for human macrophage cells (THP-1 cell line).
On the technique in general: In an ELISA, binding on a coated surface is turned into a signal by an enzyme label.

In series [7] the test system is BCG (Bacillus of Calmette and Guerin). The conditions noted are these: after a two-hour incubation; free drug.
In series [8] the test system is S. Aureus and P. Aeruginosa. Briefly: Zone of inhibition study of Povidone iodine. The conditions noted are these: formulated with the nanolipid vesicles of Preparation 2; 6.30 g Povidone iodine in 100 g; FIG. 2. The format is cell-based.
Where [9] appears, read: Mycobacterium tuberculosis, H37RV, Minus MZL.
[10] abbreviates: Mycobacterium tuberculosis, H37RV, Plus MZL.

≈ marks a conversion by molar mass, not a printed value. Entries after “also recorded” stand apart in the source; their conditions may differ. Where two headings read alike, the source gives them in different places.

With `CCN(CC)CCCC(C)Nc1ccnc2cc(Cl)ccc12` (centres unmarked) [Chloroquine], the “% Parasit” value in series [1] (1 nM chloroquine) is 2.67%; in series [1] (5 nM chloroquine), 2.33%; in [1] (10 nM chloroquine), 2.96%; in series [1] (25 nM chloroquine), 2.84%; in series [1] (50 nM chloroquine) it was 2.7%; in [1] (75 nM chloroquine), 3.33%. The “% Parasit” value came to 2.81% in series [1] (100 nM chloroquine); 2.87% in series [1] (200 nM chloroquine); 1.8% in series [1] (300 nM chloroquine); 1.5% in [1] (500 nM chloroquine); 1.4% in [1] (1000 nM chloroquine). Moreover, in series [2], the IC50 was 200 to 300 nM.

With `CC[C@@H](CO)NCCN[C@@H](CC)CO` [Ethambutol], the “inhibition maintained with MZL” value with M. tuberculosis H37Rv (MZL treated, over the range of 0.03125 μg/ml-0.125 μg/ml Ethambutol) was “approx 50%”. Also, the MIC in the series with M. tuberculosis H37Rv (Mycobacterium tuberculosis, H37RV) was ~1 µg/mL (≈ 4.89 µM). Further, in the series on M. tuberculosis H37Rv (Mycobacterium tuberculosis, H37RV, Minus MZL, read-out: % Inhibition), the inhibition at 0.0325 µg/mL was -21%. In the series on M. tuberculosis H37Rv (setting [9]), the inhibition at 0.0625 µg/mL is -16%, the inhibition at 0.125 µg/mL was -12%, the inhibition at 0.25 µg/mL came to 51% and the inhibition at 0.5 µg/mL was found to be 81%. In addition, the inhibition at 1 µg/mL in the series on M. tuberculosis H37Rv (setting [9]) is 92%. In the series on M. tuberculosis H37Rv (setting [10]), the inhibition at 0.0325 µg/mL turned out to be 48%, the inhibition at 0.0625 µg/mL turned out to be 49%, the inhibition at 0.125 µg/mL was 52% and the inhibition at 0.25 µg/mL came to 51%. In addition, in the series with M. tuberculosis H37Rv (setting [10]), the inhibition at 0.5 µg/mL is 62% and the inhibition at 1 µg/mL was determined as 86%.

Take `Clc1ccc(COC(Cn2ccnc2)c2ccc(Cl)cc2Cl)c(Cl)c1` (centres unmarked) [Free Miconazole, Miconazole nitrate]: the presence of fungi entry in [3] (4 hours incubation) was “fungi were still present in large numbers”. In series [3] (4 hours incubation with fungi, listed as free Miconazole nitrate), the “viability / state of human melanoma cells” value is on record as “decline dramatically; also recorded: cells were no longer attached to the petri dish”.

On to `NNC(=O)c1ccncc1` [INH, Isoniazid], for which the “bioavailability versus comparator Rifafour” value in series [4] was “enhanced bioavailability”.

For `[N-]=[N+]=O` [Nitrous oxide], in [5], the solubility in water result is “one liter of the gas dissolves in 1.5 liters of water”.

On to `CO[C@H]1/C=C/O[C@@]2(C)Oc3c(C)c(O)c4c(O)c(c(/C=N/N5CCN(C)CC5)c(O)c4c3C2=O)NC(=O)/C(C)=C\C=C\[C@H](C)[C@H](O)[C@@H](C)[C@@H](O)[C@@H](C)[C@H](OC(C)=O)[C@@H]1C` [Rifampicin], for which, in [4] (female), the “increase of coverage by the nanolipid delivery system” value is 180% and the “total average increase in bioavailability by Nanolipid delivery system” value was determined as 227%. Also, the Tmax in series [4] (female, po) came to 1 h.

On to `Cc1cn([C@H]2C[C@H](N=[N+]=[N-])[C@@H](CO)O2)c(=O)[nH]c1=O` [free AZT, AZT], for which, in series [6] (0.1 nM free AZT, by day 7 and 8), the “inhibition of viral growth and replication compared to the control” value is reported as 44%. Also, the “AZT concentration at which viral inhibition is optimal” value in series [6] (dilution of base-formulation 1:256) was 0.5 to 1 nM.

For `NC(=O)c1cnccn1` [free Pyrazinamide, Pyrazinamide], the BCG-viability in series [7] is recorded as 68-72%. In series [4], the “bioavailability versus comparator Rifafour” value is recorded as “enhanced bioavailability”.

Consider Povidone iodine, for which the “inhibition of bacterial growth versus free active” value in series [8] is on record as “dramatically increased”.

What is called MIC is the smallest concentration in the dilution series that meets the test's criterion for growth inhibition. For orientation: inhibition means the relative decrease from the control value, in per cent. A word on the Tmax: it is the time from dosing to the highest level.

The values above are taken from patent US8329685B1, “Enhancement of the action of anti-infective agents and of central and peripheral nervous system agents and transportation of nucleic acid substances” (priority 2001, dated 2012).
